# Measured values published in ChEMBL document CHEMBL1141773, “SERCA-inhibiting activity of C-19 terpenolides from Thapsia garganica and their possible biogenesis” (J Nat Prod, 2005).
# What was measured:
# Lytechinus pictus [1] = experiment: Inhibition of SERCA in sea urchin eggs assessed as Ca2+ leak rate; set-up: scale not given: the % may be the effect or the level left
# Lytechinus pictus [2] = experiment: Inhibition of SERCA in sea urchin eggs assessed as Ca2+ leak rate at 10 uM
# [3] = Inhibition of SERCA in sea urchin eggs assessed as Ca2+ leak rate at 10 uM relative to thapsigargin; set-up: species or system Lytechinus pictus
Compound,Activity (Lytechinus pictus [1]),Activity (Lytechinus pictus [2]),Ki [3]
C/C=C(/C)C(=O)O[C@H]1C(C)=C2[C@H]([C@@H]1OC(=O)CCCCCCC)[C@@](C)(OC(C)=O)C[C@H](OC(=O)CCC)[C@@]1(O)[C@H]2OC(=O)[C@@]1(C)O [THAPSIGARGIN],,81 RFU/min,2 pM
C=C[C@]1(C)CC[C@H]2C(C)(C)[C@H]3C=C4C=C(OC)OC(=O)[C@@H]1[C@@]42OC3=O,65.4%,,

# The next lines start with results.
Activity (Lytechinus pictus [1]),Compound,Activity (Lytechinus pictus [2]),Ki [3]
61.4%,C=C[C@@]1(C)CC[C@H]2[C@](C)(C(=O)OC)[C@H]3C=C4C=C(OC)OC(=O)[C@@H]1[C@@]42OC3=O,,
64.2%,C=C[C@@]1(C)CC[C@H]2[C@](C)(COC(C)=O)[C@H]3C=C4C=C(OC)OC(=O)[C@@H]1[C@@]42OC3=O,,
65.4%,C=C[C@@]1(C)CC[C@H]2C(C)(C)[C@H]3C=C4C=C(OC)OC(=O)[C@@H]1[C@@]42OC3=O,,
